The target of the assay is T1, SHP2 T73I (Homo sapiens, UniProt Q06124, T73I).
T1 construct: expressed in transfected cells; host or cells: Flp-In T-REx-293 (T-REx-293-SHP2)
Kind of assay: EGF-induced pERK AlphaLISA in T-REx-293-SHP2 cells, T73I. The format is cell-based. As to conditions: Variant T73I. As to the method:
An experimental system was creating to test the activity of SHP2 mutants on an isogenic background (FIG. 6). The Flp-In T-REx-293 cell line was obtained from Gibco® and cultivated in high glucose DMEM™ containing 2 mM L-glutamine (Hyclone®), supplemented with 10% FBS (Hyclone®), 1% penicillin/streptomycin (Gibco®), 100 μg/mL Zeocin™ (Gibco®), and 15 μg/mL blasticidin (Gibco®) in a humidified cell culture incubator at 37° C., 5% CO2.
Wild type or mutant SHP2 variants were synthesized and subcloned into the pcDNA5/FRT/TO vector (ThermoFisher). Plasmids were co-transfected with the pOG44 Flp recombinase expression plasmid (ThermoFisher®) into Flp-In T-REx-293 cells using X-tremegene 9 DNA transfection reagent (Sigma®), according to the manufacturer's instructions. […]
For the final 5 minutes of drug treatment, cells were stimulated with 50 ng/mL Epidermal Growth Factor (Sigma®). […] Samples were read using an EnVision Multilabel Plate Reader (Perkin Elmer®) using standard AlphaLISA settings. Assay data was plotted and EC50 values were determined using four-parameter concentration-response model in GraphPad Prism 7. […]
On the technique in general: Bead proximity is the source of the signal in Alpha formats.

For the compound `Cc1nc(N2CCC3(CC2)CO[C@@H](C)[C@H]3N)c(CO)nc1-c1cccc(Cl)c1Cl` [Compound B], the Cellular sensitivity result is recorded as “yes (Sensitive if IC50 < 2000 nM)”.

The record behind these values is patent US20210154190A1, “SHP2 INHIBITOR COMPOSITIONS AND METHODS FOR TREATING CANCER” (Revolution Medicines, Inc., priority 2018, published 2021).
